What was measured:
Type in all cases: ADME, organism-based
Triticum aestivum [1] = experiment: Drug level in Bavarian Triticum aestivum (wheat) at 10 to 100 ug/kg after 1 day by LC-MS analysis; settings: in vivo, 24 h
Triticum aestivum [2] = experiment: Drug recovery in BavarianTriticum aestivum (wheat) samples at 10 ug/kg after 1 day by LC-MS analysis; settings: in vivo, 0.01 mg/kg, 24 h
Triticum aestivum [3] = experiment: Drug recovery in Bavarian Triticum aestivum (wheat) samples at 100 ug/kg after 1 day by LC-MS analysis; settings: in vivo, 0.1 mg/kg, 24 h

For `C[C@H]1CCCC(=O)CCC/C=C/c2cc(O)cc(O)c2C(=O)O1` [ZEARALENONE], the Drug uptake (Triticum aestivum [1]) was 11 µg/kg, the Drug recovery (Triticum aestivum [2]) was 32% and the Drug recovery (Triticum aestivum [3]) was 89%.

Molecule `C[C@H]1CCCC(=O)CCC/C=C/c2cc(O[C@@H]3O[C@H](CO)[C@@H](O)[C@H](O)[C@H]3O)cc(O)c2C(=O)O1` [Zearalenone-4-beta-D-glucopyranoside] has a Drug uptake (Triticum aestivum [1]) of 17 µg/kg, a Drug recovery (Triticum aestivum [2]) of 67% and a Drug recovery (Triticum aestivum [3]) of 69%.
